Measurements published in a melting point compilation (Tetko et al.; mined from patent text by program, amines drawn as free bases though some values may be those of a salt).

SMILES | melting point [°C]
CSc1c2c3c(n1C)C(=O)C(=O)C(Cl)=C3NCC2 | 205
CC(=O)N(c1ccc(N2CCN(C)CC2)cc1)c1ncc2c(n1)S/C(=C/c1ccc(C(=O)O)cc1)C(=O)N2 | 326 to 330
COC(=O)CN(C(=O)OC)C1CN(C(=O)Nc2ccc(C(F)(F)F)cc2)N=C1c1ccc(Cl)cc1 (centres undefined) | 198 to 200
COC(=O)NC(=O)NS(=O)(=O)c1ccc(Cl)cc1 | 174 to 175
OCc1cnoc1-c1ccc(F)c(F)c1 | 72 to 73
CN1C(=O)c2cnc(-c3ccccc3)nc2N(C(=O)CN2CCOCC2)c2ccccc21 | 180 to 181
Cc1ccccc1NC(=O)Nc1ccc(CC(=O)N2CCN(C(C)C(=O)O)C(=O)C2Cc2ccccc2)cc1 (centres undefined) | 103 to 105
O=S(CCN1C=CC=CC=C1)c1ccccc1 (centres undefined) | 195
COc1cc(Nc2c(C#N)cnc3cc(-c4ccc(C5OCCCO5)o4)ccc23)c(Cl)cc1Cl | 224 to 229
CCCCCCCCCCCCCCCC(=O)C1(O)OC(COCc2ccccc2)C(OCc2ccccc2)C(OCc2ccccc2)C1OCc1ccccc1 (centres undefined) | 52 to 53
CC(=O)NNC1=Nc2sc(Cl)cc2C(c2ccccc2Cl)=NC1 | 211 to 213
CC(=O)CNC(=O)c1ccccc1C | 65 to 66
CC(C)C(CN1CCC(Nc2nc3ccccc3n2-c2cccc3c2NCCC3)CC1)NCc1ccccc1 (centres undefined) | 126
CC(C)[C@H](NC(=O)OCc1ccccc1)C(=O)N[C@@H](Cc1ccccc1)[C@@H](O)[C@@H](O)[C@H](Cc1ccccc1)NC(=O)[C@@H](NC(=O)N1CCN(C)CC1)C(C)C | 216 to 219
COc1cc2c(cc1OC)-c1cc(OC)c(OC)cc1C1CN3C(=O)CCC3C=C21 (centres undefined) | 252 to 254
O=C(O)CC[C@H](NC(=O)N1CCc2cc(S(=O)(=O)N3CCN(c4cccc(Cl)c4)CC3)ccc21)C(=O)O | 181 to 182
CC(Oc1cc2sc(NC(=O)NCCN3CCOCC3)nc2cc1F)c1c(Cl)cccc1Cl (centres undefined) | 200 to 205
CCn1ncc2c3c4c(nc21)CCc1ccccc1-c4nn3C | 140 to 141
NC(=O)N1CCN(CC(=O)N2CCOCC2)CC1 | 165
CC(C)N[C@@H]1Cc2cccc(O)c2C[C@H]1O (relative stereo) | 138 to 140
CC(C#Cc1ccc(C(O)c2cc3ccccc3s2)s1)N(O)C(N)=O (centres undefined) | 65 to 70
CCCCCCCCSc1cc(SCCCCCCCC)c2ccc3c(SCCCCCCCC)cc(SCCCCCCCC)c4ccc1c2c43 | 110

SMILES | melting point [°C]
C=CCN1CN(C(=O)c2c(F)cccc2F)C(=O)N(c2ccc(Cl)cc2)C1 | 87 to 88
Cc1noc(-c2ncn3c2[C@@H]2CCN2C(=O)c2c-3cccc2C(F)(F)F)n1 | 255 to 256
O=C1Nc2ccccc2C1=Cc1ccccn1 | 204 to 205
O=C1CCC(N2C(=O)c3cccc(OCc4ccc(CN5CCN(c6ccc(F)cc6)CC5)cc4)c3C2=O)C(=O)N1 (centres undefined) | 135 to 137
CCCCn1c2ccccc2c2cc(C(=O)O)ncc21 | 182 to 184
CCOC(=O)c1cn(CC)c2cc(N3CCNCC3)c(F)cc2c1=O | 178 to 180
NC(=O)C(OC(=O)c1ccccc1Cl)(C(N)=O)c1ccc(Cl)c(Cl)c1 | 220
COc1ccccc1N1CCN(CCC(C(N)=O)(c2ccccn2)c2ccccc2[N+](=O)[O-])CC1 (centres undefined) | 63 to 72
Cc1cc(SC2=C(O)CC(CCc3ccsc3CO)(C(C)C)OC2=O)c(C(C)(C)C)cc1CO (centres undefined) | 87 to 90
Cc1cc(C(N)=O)ncc1C(c1c(F)ccc(F)c1F)S(=O)(=O)CCC(F)(F)F (centres undefined) | 190 to 191
COc1cc(C(=O)N2CCC(CCN3CCC(C(=O)c4nc5ccccc5n4Cc4ccc(F)cc4)CC3)(c3ccc(F)cc3F)C2)cc(OC)c1OC (centres undefined) | 58 to 60
N#Cc1cc(C=NO)ccc1-n1cncn1 | 198 to 200
COC(=O)c1ccc([C@H]2CC[C@H](C3OCCO3)CC2)cc1 | 110 to 111
NS(=O)(=O)c1cc(C(=O)O)cc(SCc2ccccc2)c1-c1ccccc1 | 114 to 120
C=CCc1ccccc1OC(CC)C(=O)OC1CC(O)C=C2C=CC(C)C(CCC3CC(O)CC(=O)O3)C21 (mixture of isomers) | 143 to 145
N#CC(Cc1ccccn1)(c1ccccc1)c1ccccc1 | 116 to 117
CN1CCN(CCCCC(=O)N2c3ccccc3C(=O)Nc3cccnc32)CC1 | 151 to 153
CN(C)c1ccc(C=C2C(=O)NC(=S)NC2=O)cc1 | 272
CC(C)(C)c1nc2c(Cl)ccc(C(=O)O)c2o1 | 209 to 210
C/C(=C(\C#N)C(N)=S)N1CC[C@@H]2CCCC[C@H]2C1 (relative stereo) | 173 to 175
N[C@@H](CO)C(=O)Nn1cccc1 | 135 to 137
NOCc1ccn(C(c2ccccc2)(c2ccccc2)c2ccccc2)n1 | 105 to 110

Other lines, results leading:

melting point [°C] | SMILES
165 to 166 | CCCCn1nc2c(N)nc3ccccc3c2c1CC(C)C
120 to 125 | COC(=O)C=C(C)c1ccc(CCNCC(O)c2ccccc2)cc1 (centres undefined)
100 | C[C@H](NC(=O)OC(C)(C)C)C(=O)OCCCCNc1cccc2c1C(=O)c1ccccc1C2=O
77 to 78 | CCC1(CCCCCBr)C(=O)Nc2ccccc21 (centres undefined)
194 to 196 | CCCCCCCCCCCCCCCCCC(=O)c1ccc(OC)c(C(=O)O)c1
174 to 177 | Cn1c(C(F)(F)F)cc(=O)n(-c2cc(OCc3ccc(F)cc3)c(Cl)cc2F)c1=O
166 to 167 | CCCN(Cc1cccc(C(=N)N)c1)C(=O)Nc1ccc(-c2ccccc2S(N)(=O)=O)cc1
98 to 99 | CCCc1c(OCCCCCCc2ccccc2CCC(=O)O)ccc2c1OCCC2=O
40 | COCCc1nc2c(N)nc3ccccc3c2n1CCCNC(=O)Nc1ccccc1
105 to 107 | C[C@@H](NCCOCc1ccccc1)[C@](O)(Cn1cncn1)c1ccc(Cl)cc1Cl (relative stereo)
108 to 115 | CCCc1c(O)ccc2c1OC(C)(CCC(N)=O)CC2=O (centres undefined)
190 to 193 | CCOC(=O)C(C#N)=CNc1csc(-c2ccccc2)c1
118 | C=CCOc1ccc(C=CC(=O)Oc2ccc(OC(=O)C(=C)C)cc2)cc1
95 to 96 | CN(Cc1ccccc1)C(=O)COc1ccc([N+](=O)[O-])cc1
137 to 138 | CC(=O)Nc1ccc(N)c(C(O)c2ccccc2Cl)c1 (centres undefined)
55 to 80 | CCCCNCc1ccc2cc(OC)ccc2c1
101 to 103 | COc1cn(-c2ccc(OCc3ccccc3)cc2F)nc(C(C)=O)c1=O
104 | COc1ccc(C(=NN)Nc2ccc([N+](=O)[O-])cc2)cc1
117 to 120 | COc1cccc(C=CC(=O)CC(=O)C=Cc2cccc(OC)c2OC)c1OC
93 to 94 | COc1cc(-c2ccccc2)cc(-c2ccccc2)c1
108 | CCOC(=O)COc1cccc(C2C(C(=O)OCC)=C(C)NC(C)=C2C(=O)OCC)c1
317 to 318 | Nc1ncc2cc(-c3ccccc3)c(N)nc2n1
148 to 150 | CC(=NOCCOc1ccc(C[C@H](Oc2ccc(C(C)(C)C)cc2)C(=O)O)cc1)c1ccc(-c2ccccn2)cc1
122 | CC1C(=O)N(c2ccccc2)C(=S)N1Cc1ccc(Oc2ccccc2)cc1 (centres undefined)
94.8 to 95.9 | COC(=O)CC[C@@H](Cc1ccc(OCc2ccccc2)cc1)NC(=O)CCCCCCc1ccccc1

melting point [°C] | SMILES
105 to 107 | C=Cc1cc(CNC(=O)NCc2ccc(C(C)(C)C)cc2)cc(C)c1NS(C)(=O)=O
184 to 185 | NC(=O)CC1(c2ccccc2)C(=O)Nc2ccccc21 (centres undefined)
220 to 222 | COc1cc(OC)c(N2CCCC2)cc1/C=C/C(=O)c1ccc(S(N)(=O)=O)cc1
79 to 80 | COc1ccc(C2(C#Cc3ccc(NC(C)=O)cc3)CCC(=O)CC2)cc1OC1CCCC1
154 | Cc1cc(OCc2sc(-c3ccc(C(F)(F)F)cc3)nc2C)ccc1OC(C)(C)C(=O)O
96 | CC(C)(C)OC(=O)CNc1nc(NCc2ccc(NC(=O)c3ccc(F)cc3)cc2)c2ccccc2n1
193 to 195 | Cc1cc(Sc2ccc3nc(COc4ccc(CC5SC(=O)NC5=O)cc4)n(C)c3n2)cc(C)c1NC(=O)Nc1ccc(C(F)(F)F)cc1 (centres undefined)
105 to 106 | CCOC(=O)CN1CCc2c(sc(N)c2C(=O)c2ccc(Cl)cc2)C1
116 to 117 | O=S(=O)(NCc1ccccc1)c1ccc(Br)cc1
> 285 | CSc1ccc(-c2nc3[nH]nc(N)c3c(=O)n2-c2ccc(C)cc2)cc1
201 to 204 | COc1cccc2c(=O)n(C)c(-c3ccc(OC4CCN(C5CCC5)CC4)cc3)nc12
57 to 58 | CCCc1c(OCCCCCOc2ccc3c(c2CCC)OC(C(=O)OC)CC3)ccc(C(C)=O)c1O (centres undefined)
> 250 | Cc1ccccc1-c1cc(F)c2c(c1)CC(CN)O2 (centres undefined)
158 to 159 | COc1ccc(C=CC(=O)NCCc2ccc(OC(C)(C)C(=O)O)cc2)cc1
60 to 61 | COC(=O)c1cc(C=O)ccc1C
141 to 144 | CCN(CC)CCOc1ccc(Nc2ncc3c(n2)N(C)C(=O)N(c2ccccc2)C3)cc1
171 to 177 | S=C(NCCc1cccc(Cl)c1)Nc1nc2ccccc2[nH]1
168 to 169 | Cc1nc(N(C)Cc2ccco2)c2nc(-c3ccccc3)cc-2[nH]1
166 | CCN(CC)CCN(CC)C(=O)c1ccc(Nc2ccnc3cc(Cl)ccc23)cc1
198 to 200 | COc1ccc(C#N)c(F)c1O
174 | O=C(O)c1ccc(-c2ccc(I)c(O)c2)cc1
207 to 208 | N#Cc1ccc2nc(C(=O)NCc3cccc(CNC(=O)Cc4nc[nH]n4)c3)[nH]c(=O)c2c1
161 to 162 | Cc1c(NC(=O)c2ccc(Oc3ccccc3)cc2)ccc2cc(CN3CCCC3)cnc12
192 to 196 | CC1(C)C(=O)Nc2ccc([N+](=O)[O-])cc21
70 to 71 | Brc1ccc(OCCC(c2ccccc2)c2ccccc2)cc1
